Laboratory results as given in PubChem BioAssay AID2060606 (Molecular Pharmacology Branch, DTP, NCI, 2025).

Tested on: 922993-354-T-J3-PDC complex spheroids, viability, % test/control
Assay: Anticancer human tumor 922993-354-T-J3-PDC patient-derived endometrial carcinoma cell line growth inhibition [CLK]
Details: for IC50: curve of first compound; for viability, T/C: stronger effect = lower value
In short: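 Multi-cell-type spheroids combined patient-derived tumor cells with HUVEC endothelial cells and human mesenchymal stem cells. Paired agents were dosed in half-log steps down from about clinical Cmax, or from 10 microM where Cmax was unknown.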

[1] = second compound 0.0316 µM, first compound 0.0316 µM
[2] = second compound 0.0316 µM, first compound 0.1 µM
[3] = second compound 0.0316 µM, first compound 0.316 µM
[4] = second compound 0.0316 µM, first compound 1 µM
[5] = second compound 0.0316 µM, first compound 3.16 µM
[6] = second compound 0.0316 µM, first compound 10 µM
[7] = second compound 0.1 µM, first compound 0.0316 µM
[8] = second compound 0.1 µM, first compound 0.1 µM
[9] = second compound 0.1 µM, first compound 0.316 µM
[10] = second compound 0.1 µM, first compound 1 µM
[11] = second compound 0.1 µM, first compound 3.16 µM
[12] = second compound 0.1 µM, first compound 10 µM
[13] = second compound 0.316 µM, first compound 0.0316 µM
[14] = second compound 0.316 µM, first compound 0.1 µM
[15] = second compound 0.316 µM, first compound 0.316 µM
[16] = second compound 0.316 µM, first compound 1 µM
[17] = second compound 0.316 µM, first compound 3.16 µM
[18] = second compound 0.316 µM, first compound 10 µM
[19] = second compound 1 µM, first compound 0.0316 µM
[20] = second compound 1 µM, first compound 0.1 µM
[21] = second compound 1 µM, first compound 0.316 µM
[22] = second compound 1 µM, first compound 1 µM
[23] = second compound 1 µM, first compound 3.16 µM
[24] = second compound 1 µM, first compound 10 µM
[25] = second compound 3.16 µM, first compound 0.0316 µM
[26] = second compound 3.16 µM, first compound 0.1 µM
[27] = second compound 3.16 µM, first compound 0.316 µM
[28] = second compound 3.16 µM, first compound 1 µM
[29] = second compound 3.16 µM, first compound 3.16 µM
[30] = second compound 3.16 µM, first compound 10 µM
[31] = second compound 10 µM, first compound 0.0316 µM
[32] = second compound 10 µM, first compound 0.1 µM
[33] = second compound 10 µM, first compound 0.316 µM
[34] = second compound 10 µM, first compound 1 µM
[35] = second compound 10 µM, first compound 3.16 µM
[36] = second compound 10 µM, first compound 10 µM
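Further: spheroids exposed to the agents for 7 days before readout.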

## COc1ccc([C@@H](O)c2cc(-c3ncnc4cc(N5CCOCC5)ccc34)c(F)cc2Cl)nn1 + CN1CCN(c2cc(C(=O)Nc3cc4cc(-c5cnn(C)c5)ccc4cn3)ccn2)CC1
Second compound 0.0316 µM
  IC50: > 10000 nM
Second compound 0.1 µM
  IC50: > 10000 nM
Second compound 0.316 µM
  IC50: < 31.6 nM
Second compound 1 µM
  IC50: < 31.6 nM
Second compound 3.16 µM
  IC50: < 31.6 nM
Second compound 10 µM
  IC50: < 31.6 nM
[1]
  viability, T/C: 112%
[2]
  viability, T/C: 131%
[3]
  viability, T/C: 123%
[4]
  viability, T/C: 122%
[5]
  viability, T/C: 112%
[6]
  viability, T/C: 85.4%
[7]
  viability, T/C: 87.8%
[8]
  viability, T/C: 87.7%
[9]
  viability, T/C: 85.6%
[10]
  viability, T/C: 91.5%
[11]
  viability, T/C: 90.2%
[12]
  viability, T/C: 76.1%
[13]
  viability, T/C: 35.9%
[14]
  viability, T/C: 33.1%
[15]
  viability, T/C: 30.8%
[16]
  viability, T/C: 25.4%
[17]
  viability, T/C: 24.9%
[18]
  viability, T/C: 24.7%
[19]
  viability, T/C: 0.11%
[20]
  viability, T/C: 0.13%
[21]
  viability, T/C: 0.13%
[22]
  viability, T/C: 0.11%
[23]
  viability, T/C: 0.22%
[24]
  viability, T/C: 1.37%
[25]
  viability, T/C: 0.13%
[26]
  viability, T/C: 0.14%
[27]
  viability, T/C: 1.21%
[28]
  viability, T/C: 1.06%
[29]
  viability, T/C: 2.69%
[30]
  viability, T/C: 1.48%
[31]
  viability, T/C: 0.14%
[32]
  viability, T/C: 2.05%
[33]
  viability, T/C: 1.47%
[34]
  viability, T/C: 0.25%
[35]
  viability, T/C: 1.52%
[36]
  viability, T/C: 2.52%

## COc1cccc2c1C(=O)c1c(O)c3c(c(O)c1C2=O)CC(O)(C(=O)CO)CC3OC1CC(N)C(O)C(C)O1 (centres undefined) + CN1CCN(c2cc(C(=O)Nc3cc4cc(-c5cnn(C)c5)ccc4cn3)ccn2)CC1
Second compound 0.0316 µM
  IC50: 2210 nM
Second compound 0.1 µM
  IC50: 1840 nM
Second compound 0.316 µM
  IC50: < 31.6 nM
Second compound 1 µM
  IC50: < 31.6 nM
Second compound 3.16 µM
  IC50: < 31.6 nM
Second compound 10 µM
  IC50: < 31.6 nM
[1]
  viability, T/C: 108%
[2]
  viability, T/C: 119%
[3]
  viability, T/C: 93.7%
[4]
  viability, T/C: 66.1%
[5]
  viability, T/C: 45.2%
[6]
  viability, T/C: 15.5%
[7]
  viability, T/C: 123%
[8]
  viability, T/C: 109%
[9]
  viability, T/C: 83.3%
[10]
  viability, T/C: 65%
[11]
  viability, T/C: 37.8%
[12]
  viability, T/C: 17.4%
[13]
  viability, T/C: 31%
[14]
  viability, T/C: 38%
[15]
  viability, T/C: 32.9%
[16]
  viability, T/C: 26.4%
[17]
  viability, T/C: 13.3%
[18]
  viability, T/C: 11.1%
[19]
  viability, T/C: 0.14%
[20]
  viability, T/C: 1.85%
[21]
  viability, T/C: 0.14%
[22]
  viability, T/C: 0.11%
[23]
  viability, T/C: 0.09%
[24]
  viability, T/C: 1.32%
[25]
  viability, T/C: 0.12%
[26]
  viability, T/C: 0.2%
[27]
  viability, T/C: 0.67%
[28]
  viability, T/C: 0.09%
[29]
  viability, T/C: 1.78%
[30]
  viability, T/C: 1.28%
[31]
  viability, T/C: 0.16%
[32]
  viability, T/C: 0.15%
[33]
  viability, T/C: 0.16%
[34]
  viability, T/C: 0.15%
[35]
  viability, T/C: 1.57%
[36]
  viability, T/C: 1.56%
